Source: PubChem BioAssay AID330 (DTP/NCI, 2004)
Where “and” joins values, the source holds several entries; their conditions need not be identical. Identical values can stand only once. Toxic doses and inconclusive results are not listed.

System: P388 leukemia ip, CD2F1 mice, survival T/C
Assay: NCI In Vivo Anticancer Drug Screen. Data for tumor model P388 Leukemia (intraperitoneal) in CD2F1 (CDF1) mice
Settings: endpoint: median survival time, higher = longer survival
Procedure, shortened: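 Mice carrying the transplanted tumor received test compound or vehicle. Survival was recorded in each group, and the value is the treated-group measurement divided by that of the vehicle-treated control group.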

[1] = dose: 50.0 mg/kg/injection, schedule: Q01DX005 (ip), vehicle: Klucel (hydroxypropylcellulose) (HPC)
[2] = dose: 100.0 mg/kg/injection, schedule: Q01DX005 (ip), vehicle: Klucel (hydroxypropylcellulose) (HPC)
[3] = dose: 50.0 mg/kg/injection, schedule: Q01DX005 (ip), vehicle: saline with Tween-80
[4] = dose: 100.0 mg/kg/injection, schedule: Q01DX005 (ip), vehicle: saline with Tween-80
[5] = dose: 200.0 mg/kg/injection, schedule: Q01DX005 (ip), vehicle: saline with Tween-80
[6] = dose: 200.0 mg/kg/injection, schedule: Q01DX005 (ip), vehicle: Klucel (hydroxypropylcellulose) (HPC)
[7] = dose: 50.0 mg/kg/injection, schedule: Q01DX005 (ip), vehicle: saline
[8] = dose: 100.0 mg/kg/injection, schedule: Q01DX005 (ip), vehicle: saline
[9] = dose: 200.0 mg/kg/injection, schedule: Q01DX005 (ip), vehicle: saline
[10] = dose: 50.0 mg/kg/injection, schedule: Q01DX009 (ip), vehicle: saline with Tween-80
[11] = dose: 100.0 mg/kg/injection, schedule: Q01DX001 (ip), vehicle: saline with Tween-80
[12] = dose: 200.0 mg/kg/injection, schedule: Q01DX001 (ip), vehicle: saline with Tween-80
[13] = dose: 400.0 mg/kg/injection, schedule: Q01DX001 (ip), vehicle: saline with Tween-80
[14] = dose: 50.0 mg/kg/injection, schedule: Q01DX009 (ip), vehicle: saline
[15] = dose: 100.0 mg/kg/injection, schedule: Q01DX009 (ip), vehicle: saline
[16] = dose: 25.0 mg/kg/injection, schedule: Q01DX009 (ip), vehicle: suspension in saline
[17] = dose: 50.0 mg/kg/injection, schedule: Q01DX009 (ip), vehicle: suspension in saline
[18] = dose: 200.0 mg/kg/injection, schedule: Q01DX009 (ip), vehicle: saline

CN1C(=O)N(C)C2(C(=O)N(C)C(=O)N2C)N(C)C1=O
T/C (dose: 60.0 mg/kg/injection, schedule: Q01DX005 (ip), vehicle: Klucel (hydroxypropylcellulose) (HPC)): 99 % of control and 102 % of control | T/C (dose: 120.0 mg/kg/injection, schedule: Q01DX005 (ip), vehicle: Klucel (hydroxypropylcellulose) (HPC)): 96 % of control | T/C (dose: 240.0 mg/kg/injection, schedule: Q01DX005 (ip), vehicle: Klucel (hydroxypropylcellulose) (HPC)): 98 % of control and 105 % of control

CCN=C(N)N/N=C(\C)c1ccc2c(c1)Cc1cc(/C(C)=N/NC(N)=NCC)ccc1-2
T/C (dose: 0.39 mg/kg/injection, schedule: Q04DX002 (ip), vehicle: saline with Tween-80): 100 % of control | T/C (dose: 0.39 mg/kg/injection, schedule: Q04DX002 (ip), vehicle: saline): 98 % of control | T/C (dose: 0.78 mg/kg/injection, schedule: Q04DX002 (ip), vehicle: saline with Tween-80): 94 % of control | T/C (dose: 0.78 mg/kg/injection, schedule: Q04DX002 (ip), vehicle: saline): 93 % of control | T/C (dose: 1.56 mg/kg/injection, schedule: Q04DX002 (ip), vehicle: saline with Tween-80): 103 % of control | T/C (dose: 1.56 mg/kg/injection, schedule: Q04DX002 (ip), vehicle: saline): 102 % of control | T/C (dose: 3.12 mg/kg/injection, schedule: Q04DX002 (ip), vehicle: saline with Tween-80): 101 % of control | T/C (dose: 3.12 mg/kg/injection, schedule: Q04DX002 (ip), vehicle: saline): 104 % of control | T/C (dose: 6.25 mg/kg/injection, schedule: Q04DX002 (ip), vehicle: saline with Tween-80): 102 % of control | T/C (dose: 6.25 mg/kg/injection, schedule: Q04DX002 (ip), vehicle: saline): 105 % of control | T/C (dose: 12.5 mg/kg/injection, schedule: Q04DX002 (ip), vehicle: saline): 105 % of control | T/C (dose: 25.0 mg/kg/injection, schedule: Q04DX002 (ip), vehicle: saline): 102 % of control

OCCN1CCN(CCCN2c3cscc3Sc3ccc(Cl)cc32)CC1
T/C [1]: 94 % of control and 95 % of control | T/C [2]: 101 % of control

C/C=C(/C)C(=O)OC1CC(C)=CC(OC(=O)/C(C)=C\C)[C@]2(C)C1[C@](O)(C(C)C)C[C@H]2OC(C)=O (stereo partly drawn)
T/C (dose: 5.0 mg/kg/injection, schedule: Q01DX005 (ip), vehicle: Klucel + Tween-80): 95 % of control | T/C (dose: 10.0 mg/kg/injection, schedule: Q01DX005 (ip), vehicle: Klucel + Tween-80): 97 % of control | T/C (dose: 20.0 mg/kg/injection, schedule: Q01DX005 (ip), vehicle: Klucel + Tween-80): 100 % of control | T/C (dose: 40.0 mg/kg/injection, schedule: Q01DX005 (ip), vehicle: Klucel + Tween-80): 91 % of control

CN1CCN(C(=O)/C(=C/c2ccccc2)NC(=O)c2ccccc2)CC1
T/C [3]: 96 % of control | T/C [4]: 95 % of control | T/C [5]: 87 % of control

C=C(C)C1CC=C(C)C(SCCN(CC)CC)C1 (stereo not drawn)
T/C [1]: 104 % of control | T/C [2]: 109 % of control | T/C [6]: 118 % of control

Nc1nnc2nc(C(C(=O)c3ccccc3)c3nc4nnc(N)n4[nH]c3=O)c(=O)[nH]n12
T/C [7]: 102 % of control | T/C [8]: 96 % of control | T/C [9]: 97 % of control

CCOC(=O)N1CCN(CCCCCCOc2ccc(C3CCCCC3)cc2)CC1
T/C [10]: 106 % of control | T/C (dose: 100.0 mg/kg/injection, schedule: Q01DX009 (ip), vehicle: saline with Tween-80): 118 % of control | T/C (dose: 200.0 mg/kg/injection, schedule: Q01DX009 (ip), vehicle: saline with Tween-80): 123 % of control

Cc1ccc(NC(=O)CNCC(C)C)cc1Cl
T/C [1]: 100 % of control | T/C [2]: 109 % of control | T/C [6]: 100 % of control

CC1C(C(=O)c2ccccc2)=CNc2ccccc21 (stereo not drawn)
T/C [11]: 91 % of control | T/C [12]: 96 % of control | T/C [13]: 92 % of control

CCN(CC)CCCC(CCl)Nc1ccnc2cc(Cl)ccc12 (stereo not drawn)
T/C (dose: 50.0 mg/kg/injection, schedule: Q01DX009 (ip), vehicle: Klucel (hydroxypropylcellulose) (HPC)): 113 % of control | T/C [14]: 97 % of control | T/C (dose: 100.0 mg/kg/injection, schedule: Q01DX009 (ip), vehicle: Klucel (hydroxypropylcellulose) (HPC)): 100 % of control | T/C [15]: 100 % of control | T/C (dose: 200.0 mg/kg/injection, schedule: Q01DX009 (ip), vehicle: Klucel (hydroxypropylcellulose) (HPC)): 98 % of control

N#CN
T/C (dose: 12.5 mg/kg/injection, schedule: Q01DX009 (ip), vehicle: suspension in saline): 103 % of control | T/C [16]: 97 % of control | T/C [14]: 91 % of control and 103 % of control | T/C [17]: 107 % of control | T/C [15]: 101 % of control and 106 % of control | T/C [18]: 102 % of control

CC(c1ccccc1)c1cc(C(C)(C)C)cc(C(C)(C)C)c1O (stereo not drawn)
T/C (dose: 50.0 mg/kg/injection, schedule: Q01DX005 (ip), vehicle: distilled water + alcohol): 96 % of control | T/C (dose: 100.0 mg/kg/injection, schedule: Q01DX005 (ip), vehicle: distilled water + alcohol): 100 % of control | T/C (dose: 200.0 mg/kg/injection, schedule: Q01DX005 (ip), vehicle: distilled water + alcohol): 99 % of control

CN1CCN(C)B1N=S=NB1N(C)CCN1C
T/C (dose: 12.5 mg/kg/injection, schedule: Q01DX005 (ip), vehicle: olive oil, sesame oil, peanut oil): 100 % of control and 105 % of control | T/C (dose: 25.0 mg/kg/injection, schedule: Q01DX005 (ip), vehicle: olive oil, sesame oil, peanut oil): 105 % of control and 96 % of control | T/C (dose: 50.0 mg/kg/injection, schedule: Q01DX005 (ip), vehicle: olive oil, sesame oil, peanut oil): 104 % of control and 97 % of control | T/C (dose: 100.0 mg/kg/injection, schedule: Q01DX005 (ip), vehicle: olive oil, sesame oil, peanut oil): 102 % of control and 103 % of control

C=C1OC(CC(C)C)=C(C(=O)OC(C)(C)C)C1C (stereo not drawn)
T/C [11]: 99 % of control | T/C [12]: 99 % of control | T/C [13]: 100 % of control

COC1=CC(=N/Br)/C=CC/1=N/Br
T/C [7]: 98 % of control and 103 % of control | T/C [8]: 99 % of control and 100 % of control and 105 % of control | T/C [9]: 99 % of control and 107 % of control and 120 % of control

Cn1c(NCCN2CCCCC2)c(C(=O)/C=C/c2ccccc2)c(=O)n(C)c1=O
T/C [1]: 104 % of control | T/C [2]: 107 % of control | T/C [6]: 103 % of control

COC(=O)Cc1cccc2c(=O)cc(-c3cccs3)oc12
T/C (dose: 25.0 mg/kg/injection, schedule: Q01DX009 (ip), vehicle: saline): 90 % of control | T/C [16]: 97 % of control | T/C [14]: 105 % of control and 92 % of control | T/C [17]: 94 % of control | T/C [15]: 117 % of control and 97 % of control | T/C (dose: 100.0 mg/kg/injection, schedule: Q01DX009 (ip), vehicle: suspension in saline): 94 % of control | T/C [18]: 108 % of control | T/C (dose: 200.0 mg/kg/injection, schedule: Q01DX009 (ip), vehicle: suspension in saline): 95 % of control

O=C(O)/C=N/NS(=O)(=O)c1ccccc1
T/C (dose: 12.5 mg/kg/injection, schedule: Q01DX009 (ip), vehicle: water): 113 % of control | T/C (dose: 50.0 mg/kg/injection, schedule: Q01DX009 (ip), vehicle: water): 153 % of control | T/C (dose: 75.0 mg/kg/injection, schedule: Q01DX009 (ip), vehicle: water): 163 % of control | T/C (dose: 100.0 mg/kg/injection, schedule: Q01DX009 (ip), vehicle: water): 99 % of control

O=[N+]([O-])c1ccc(NS(=O)(=O)c2cccs2)c([N+](=O)[O-])c1
T/C (dose: 12.5 mg/kg/injection, schedule: Q01DX009 (ip), vehicle: saline with Tween-80): 105 % of control | T/C (dose: 25.0 mg/kg/injection, schedule: Q01DX009 (ip), vehicle: saline with Tween-80): 103 % of control | T/C [10]: 108 % of control

C/C(=N\NC(=S)N1CCN(c2ccccn2)CC1)c1cccc2cccnc12
T/C [3]: 103 % of control | T/C [4]: 106 % of control | T/C [5]: 110 % of control

NNS(=O)(=O)c1ccc(Cl)cc1
T/C (dose: 25.0 mg/kg/injection, schedule: Q01DX009 (ip), vehicle: other): 117 % of control | T/C (dose: 50.0 mg/kg/injection, schedule: Q01DX009 (ip), vehicle: other): 113 % of control | T/C (dose: 100.0 mg/kg/injection, schedule: Q01DX009 (ip), vehicle: other): 120 % of control | T/C (dose: 200.0 mg/kg/injection, schedule: Q01DX009 (ip), vehicle: other): 120 % of control
